Measured values reported in ChEMBL document CHEMBL3886721, “Thienopyrimidine compounds and use thereof” (2016).

Target: T1, Gonadotropin-releasing hormone receptor (Macaca fascicularis, UniProt G7P5Q7)
T1 sequence (G7P5Q7 whole entry): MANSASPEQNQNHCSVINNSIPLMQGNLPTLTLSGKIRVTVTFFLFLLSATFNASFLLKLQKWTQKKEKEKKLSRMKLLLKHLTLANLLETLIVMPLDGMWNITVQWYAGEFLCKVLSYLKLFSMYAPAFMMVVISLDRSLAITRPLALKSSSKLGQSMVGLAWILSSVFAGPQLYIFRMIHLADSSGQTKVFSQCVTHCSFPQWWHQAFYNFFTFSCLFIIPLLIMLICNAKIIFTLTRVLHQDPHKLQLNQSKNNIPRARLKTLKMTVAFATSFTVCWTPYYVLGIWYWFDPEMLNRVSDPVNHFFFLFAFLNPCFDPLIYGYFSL
Test: 125I-Leuprorelin Binding Assay: The monkey and human membrane fractions prepared were diluted with the assay buffer to yield a 200 µg/ml dilution, each of which was then dispensed at 188 μl per tube. To a tube containing the cell membrane fraction of the CHO with monkey GnRH receptors expressed were added 2 μl of a solution of 20 mM compound in 60% DMSO and 10 μl of 38 nM 125I-leuprorelin. To a tube containing the cell membrane fraction of the CHO with human GnRH receptors expressed were added 2 μl of a solution of 2 mM compound in 60% DMSO and 10 μl of 38 nM 125I-leuprorelin. To determine maximum binding quantity, a reaction mixture containing 2 μl of 60% DMSO and 10 μl of 38 nM 125I-leuprorelin was prepared. To determine non-specific binding amount, a reaction mixture containing 2 μl of a solution of 100 μM leuprorelin in 60% DMSO and 10 μl of 38 nM 125I-leuprorelin was prepared.

IC50: 3 nM
SMILES: CCOCCN(C)Cc1c(-c2ccc(NC(=O)NOC)cc2)sc2c1c(=O)n(-c1ccccn1)c(=O)n2Cc1c(F)cccc1F
